Assay results taken from patent US9458212B2, “Nanoparticles containing a peptide, vectors containing said nanoparticles, and pharmaceutical uses of said nanoparticles and vectors” (CENTRE NATIONAL DE LA RECHERCHE SCIENTIFIQUE (C.N.R.S.), priority 2008, dated 2016).
Non-standard residues stand in square brackets, D forms with d. No end group written: not given here. pS = N[C@@H](COP(=O)(O)O)C(=O)O

Assays:
[1] = tested on: T cells present in the lymph nodes draining the site of administration; test: Subcutaneous immunization of BALB/c mice; ex vivo proliferation and cytokine secretion of lymph node cells stimulated with peptide P140; conditions: s.c., in the presence of CFA
Procedure: Eur. J. Immunol. 33, 287-296].
Female BALB/c mice aged 7 weeks old (4 groups of two mice) are immunized subcutaneously in the flanks with different formulations. […] The mice having received peptide in its free form or in the form of nanoparticles all received the same quantity of peptide, namely 100 μg per mouse.
One week after the immunization, the mice are sacrificed and samples are taken from the lymph nodes of the flank and of the foreleg. The cells issuing from these lymph nodes are cultured ex vivo in a proportion of 5.10^5 cells per well in the presence of different peptide concentrations (0, 6, 20 and 60 μM) so as to study their proliferation and also the secretion of cytokines.
The Th cells are classified into sub-populations, Th1 or Th2, depending on the cytokines that they produce and the function that they perform. Cells of type Th-1 produce in particular interleukin-2 (IL-2) and interferon-γ (IFN-γ), whereas cells of type Th-2 secrete essentially IL-4, IL-5, IL-6, IL-10 and IL-13. The immunization conditions used here, that is to say the use of CFA, encourage the development of a response of type Th1. Therefore, only the secretion of IL-2 and IFN-γ was studied.

[2] = tested on: T cells present in the lymph nodes draining the site of administration; conditions: with adjuvant, BALB/c mice, Monneaux et al. 2003; cited from earlier work
mice = test: Intranasal administration of peptide P140 in mice; assay type: in vivo
Procedure: At present, the peptide P140 is administered by subcutaneous injection, which is not a comfortable mode of administration for the patient. Several other modes of administration have thus been tested. For instance, intranasal administration has been tested in mice but is not effective.

In the case of “peptide P140: 21 amino acid peptide RIHMVYSKRSGKPRGYAFIEY, serine in position 10 phosphorylated (SEQ ID NO: 1) (RIHMVYSKR[pS]GKPRGYAFIEY; listed as Homo sapiens)”, the “stimulation indices (proliferation)” value ([1]; 100 μg peptide per mouse, cells cultured with 0, 6, 20, 60 μM peptide) is given as “positive and dose-dependent”, the “cytokine secretion (IL-2, IFN-γ)” value [1] is given as “dose-dependent responses” and the “T cell response after s.c. administration in the presence of adjuvant” value [2] is given as “activation of the auxiliary T cells Th”. For the same substance, the “efficacy of intranasal administration” value (mice) was “not effective”.
